Source: patent US9072729B2, “Method for treating fibrosis and cancer with imidazolium and imidazolinium compounds” (Agency for Science, Technology and Research, priority 2008, dated 2015)

What was measured:
Format in all cases: cell-based, rat
SOD = experiment: Superoxide dismutase (SOD) activity assay in treated cells; settings: HSC T6 cells, 48 h
Method: (§1) FIG. 4. Effect of DBZIM and TDBZIM on GPx, CAT, SOD and GST. DBZIM affected (a) GPx activity and (c) CAT activity in a dosage-dependent manner. TDBZIM suppressed (b) GPx activity and (d) CAT activity. (e) DBZIM and (f) TDBZIM had little effect on SOD activity. (g) DBZIM induced GST activity. HSC T6 cells were treated with compounds of various concentrations for 48 h, and homogenized by sonication (60% frequency for 30 s) in PBS (pH 7.4, 1 mM of EDTA) for GPx, GST and CAT assays, or in 20 mM of HEPES buffer containing 1 mM of EGTA, 210 mM of mannitol and 70 mM of sucrose (pH 7.2) for SOD assay. Enzyme activity was normalized against total protein. DBZIM was dissolved in DMSO, and TDBZIM was dissolved in H2O. The data were presented as mean and SEM, N=6, *^aP<0.05, *^bP<0.01, *^cP<0.005, and *^dP<0.0005, when compared to the vehicle control.
(§2) Activity levels of three anti-oxidant enzymes, GPx, CAT and SOD, were determined using assay kits from Cayman Chemical. To assay GPx and CAT activities, protein samples were harvested in ice-cold PBS containing 1 mM of EDTA. To assay SOD activity, protein samples were prepared in 20 mM of N-(2-hydroxyethyl)-piperazine-N′-2-ethanesulfonic acid (HEPES) buffer containing 1 mM of ethylene glycol-bis(2-aminoethylether)-N,N,N′,N′-tetraacetic acid (EGTA), 210 mM of mannitol and 70 mM of sucrose. Protein content was determined by BCA assay.
Total SOD, including all three types of SOD (Cu/Zn-, Mn- and Fe-SOD), was quantified using a tetrazolium salt to detect superoxide radicals generated by xanthine oxidase and hyposanthine. […] SOD activity was expressed as U/mg protein.

SMAA = experiment: Real-time RT-PCR of SMAA mRNA in HSC T6 cells; settings: for change of SMAA mRNA: 8 h
Method: (§3) FIG. 6. (a) DBZIM and (b) TDBZIM suppressed the mRNA expression of HSC activation markers (GFAP and SMAA) and fibrotic endpoints (col1a1 and fibronectin) in a dosage-dependent manner. […] The ΔΔCt method was used for relative quantification with vehicle control sample being the calibrator. The data were presented as mean and SEM, N=6, *^aP<0.05, *^bP<0.01, *^cP<0.005, and *^dP<0.0005, when compared to the vehicle control. FIG. 7. DBZIM (100 μM) and TDBZIM (100 μM) suppressed (a) GFAP, (b) SMAA, (c) col1a1 and (d) fibronectin mRNA expression in a time-dependent manner. HSC T6 cells were treated with DBZIM and TDBZIM, and assayed after 8, 24 and 48 h. […] FIG. 14. […] (50 μM), […] (50 μM), […] (10 μM) and DBZBIM (100 μM) were dissolved in DMSO with a final DMSO concentration of 0.2% (v/v). DPIM (2 mM), EGCG (25 μM) and DBZIM (100 μM) were dissolved in H2O. β-actin was used as the normalization gene; its expression was constant under the experimental conditions. Relative quantification was normalized against the respective vehicle control. The data were presented as mean and SEM, N=6, *^aP<0.05, *^cP<0.005, and *^dP<0.0005, when compared to the vehicle control. Total RNA was isolated using NucleoSpin RNAII isolation kit ([…], Germany), and quantified by ND-100 spectrophotometer (Nanodrop Technologies, DE, USA). The details of real-time RT-PCR were reported elsewhere (Zhang et al. 2006). Briefly, it was a two-step real-time RT-PCR using Taqman chemistry. Total RNA was first reverse transcribed to cDNA, and real-time PCR was run and detected in ABI 7500 Fast Real-Time PCR System (Applied Biosystems, CA, USA). Primers and probes for rat GFAP, SMAA, collagen Ia1, fibronectin, TGF-β1, TGF-β receptor I (TGFβ RI) and IL-6 were ordered from Taqman's assay-on-demand database. Rat β-actin was used as normalization gene, and its expression level was constant (CT difference was <±0.5) throughout the experimental settings in this study. Relative quantification of target mRNA was calculated using comparative threshold cycle method (ΔΔCT) as described in User Bulletin #2 (ABI Prism 7700 Sequence Detection System). Relative quantification was given by 2^-ΔΔCT to express the up-regulation or down regulation of the target gene under the treatments compared to the control.

col1a1 = experiment: Real-time RT-PCR of col1a1 mRNA in HSC T6 cells
Method: as §3

GPx = experiment: Glutathione peroxidase (GPx) activity assay in treated cells
Method: as §1, §2
GPx activity was indirectly measured by a coupled reaction with GSH reductase. Oxidized GSH, produced upon reduction of H2O2 by GPx, is recycled to its reduced state by glutathione reductase (GR) and nicotinamide adenine dinucleotide phosphate (NADPH). The oxidation of NAPDH is proportional to the GPx activity, and can be measured as a decrease in absorbance at 340 nm. GPx activity was expressed as nmol/min/mg protein.

Molecule	effect on SOD activity (SOD)	decrease of SMAA mRNA (SMAA; 1 μM, 48 h)	change of SMAA mRNA (SMAA; 100 μM)	transient induction of SMAA mRNA (SMAA; 100 μM, 24 h)	decrease of col1a1 mRNA (col1a1; 1 μM, 48 h)	decrease of col1a1 mRNA (col1a1; 10 μM, 48 h)	decrease of col1a1 mRNA (col1a1; 100 μM, 8 h)	decrease of col1a1 mRNA (col1a1; 100 μM, 24 h)	decrease of col1a1 mRNA (col1a1; 100 μM, 48 h)	attenuation of GPx activity (GPx; 10 μM, 48 h)	attenuation of GPx activity (GPx; 50 μM, 48 h)	attenuation of GPx activity (GPx; 100 μM, 48 h)	decrease of SMAA mRNA (SMAA; 100 μM, 48 h)	decrease of SMAA mRNA (SMAA; 300 μM, 48 h)	decrease of col1a1 mRNA (col1a1; 300 μM, 48 h)	enhancement of GPx activity (GPx; 300 μM, 48 h)	suppression of SMAA mRNA (SMAA; 48 h, DBIM 1 mM, DPIM 2 mM, AMIM 50 μM, TMPHIM 50 μM)	suppression of col1a1 mRNA (col1a1; 48 h, DBIM 1 mM, DPIM 2 mM, TMPHIM 50 μM, DPPHIM 10 μM)	attenuation of GPx activity (references) (GPx; EGCG 25 μM, NAC 5 mM)
1,3,5-tris(4-methyl-imidazolium)-linked cyclophane.3Br [TDBZIM]	did not show much effect	27%	no change	up to 79%	39%	36%	22%	40%	53%	18%	25%	34%	–	–	–	–	–	–	–
[Br-].c1ccc(Cn2cc[n+](Cc3ccccc3)c2)cc1 [DBZIM, 1,3-bisbenzylimidazolium bromide]	did not show much effect	–	no change	–	–	–	22%	29%	21%	10%	10%	–	21%	58%	44%	15%	–	–	–
CC(C)n1cc[n+](C(C)C)c1.F[B-](F)(F)F [DPIM, 1,3-diisopropylimidazolium tetrafluoroborate]	–	–	–	–	–	–	–	–	–	–	–	–	–	–	–	–	78%	61%	–
(−)-Epigallocatechin gallate [EGCG, reference compound]	did not show much effect	–	–	–	–	–	–	–	–	–	–	–	–	–	–	–	–	–	53%
